ChEMBL document CHEMBL3853332, “Pyrazolodiazepine derivatives with agonist activity toward Drosophila RYamide receptor” (Bioorg Med Chem Lett, 2016)
Active and inactive are the calls of the source. No cut-off for these calls is given here. Peptide text beside a SMILES is read from it.

Key:
[1] = molecular target: T1, RYamide receptor (Drosophila melanogaster) (UniProt P25931); experiment: Agonist activity at Drosophila melanogaster RYamide receptor expressed in wild type CHO-K1 cells assessed as increase in calcium level at 0.01 mM after 20 secs by luminescence assay; assay type: cell-based
T1 sequence (whole entry): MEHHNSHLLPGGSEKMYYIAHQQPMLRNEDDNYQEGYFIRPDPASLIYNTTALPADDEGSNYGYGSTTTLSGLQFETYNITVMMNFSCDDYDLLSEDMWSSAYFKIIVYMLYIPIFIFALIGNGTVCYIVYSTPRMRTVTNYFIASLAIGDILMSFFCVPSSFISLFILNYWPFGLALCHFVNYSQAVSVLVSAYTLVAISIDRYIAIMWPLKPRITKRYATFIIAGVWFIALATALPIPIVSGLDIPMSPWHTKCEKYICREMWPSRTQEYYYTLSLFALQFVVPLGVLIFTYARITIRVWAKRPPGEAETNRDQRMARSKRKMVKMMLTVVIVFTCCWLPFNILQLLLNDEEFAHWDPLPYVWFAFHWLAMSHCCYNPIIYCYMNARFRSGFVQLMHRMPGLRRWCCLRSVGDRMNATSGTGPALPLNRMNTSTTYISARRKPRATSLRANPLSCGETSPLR

[2] = molecular target: T1, RYamide receptor (Drosophila melanogaster); experiment: Partial agonist activity at Drosophila melanogaster RYamide receptor expressed in wild type CHO-K1 cells assessed as increase in calcium level at 5 uM after 20 secs by luminescence assay relative to RYamide-1; assay type: cell-based
[3] = molecular target: T2, RYamide receptor (Drosophila melanogaster, UniProt P25931); experiment: Agonist activity at Drosophila melanogaster RYamide receptor expressed in wild type CHO-K1 cells assessed as increase in calcium level after 20 secs by luminescence assay; assay type: cell-based
T2 sequence (P25931 whole entry): T1 sequence (whole entry)

[4] = molecular target: T3, Neuropeptide F receptor (Drosophila melanogaster) (UniProt Q9VNM1); experiment: Agonist activity at Drosophila melanogaster NPFR1 expressed in wild type CHO-K1 cells assessed as increase in calcium level at low nanomolar concentration after 20 secs by luminescence assay; assay type: functional, cell-based
T3 sequence (whole entry): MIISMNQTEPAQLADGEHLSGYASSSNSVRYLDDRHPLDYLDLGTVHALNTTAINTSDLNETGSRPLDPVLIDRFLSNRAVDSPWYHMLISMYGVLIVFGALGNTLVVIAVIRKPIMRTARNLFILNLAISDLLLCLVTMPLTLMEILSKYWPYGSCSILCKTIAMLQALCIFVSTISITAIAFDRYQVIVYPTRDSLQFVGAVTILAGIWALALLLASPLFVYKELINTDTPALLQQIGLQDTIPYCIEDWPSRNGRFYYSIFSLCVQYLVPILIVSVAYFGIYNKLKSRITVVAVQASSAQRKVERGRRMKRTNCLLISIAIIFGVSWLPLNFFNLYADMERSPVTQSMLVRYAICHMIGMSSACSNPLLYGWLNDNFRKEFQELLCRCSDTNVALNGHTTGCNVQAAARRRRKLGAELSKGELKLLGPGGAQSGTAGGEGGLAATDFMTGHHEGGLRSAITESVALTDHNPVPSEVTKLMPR

SMILES	Activity [1]	Activity [2] [%]	EC50 [3] [µM]	Activity [4]
Cc1noc(C)c1CN1CC(Cc2ccccc2)NC(=O)c2nn(CCC3CCN(C(=O)OC(C)(C)C)CC3)cc21 (stereo not drawn)	Active	40	5.9	–
CSCC[C@H](NC(=O)[C@@H](NC(=O)[C@H](CC(N)=O)NC(=O)[C@@H](NC(=O)[C@H](CC(=O)O)NC(=O)[C@H](CC(N)=O)NC(=O)[C@H](CCCCN)NC(=O)[C@H](CCCNC(=N)N)NC(=O)[C@@H]1CCCN1C(=O)[C@@H]1CCCN1C(=O)[C@H](CCCNC(=N)N)NC(=O)[C@H](CO)NC(=O)[C@H](CC(N)=O)NC(=O)[C@@H](N)CO)C(C)C)[C@@H](C)O)C(=O)N[C@@H](C)C(=O)N[C@@H](CC(=O)O)C(=O)N[C@@H](C)C(=O)N[C@@H](Cc1ccc(O)cc1)C(=O)N[C@@H](CCCCN)C(=O)N[C@@H](Cc1ccccc1)C(=O)N[C@@H](CC(C)C)C(=O)N[C@@H](CCC(N)=O)C(=O)N[C@@H](CC(=O)O)C(=O)N[C@@H](CC(C)C)C(=O)N[C@@H](CC(=O)O)C(=O)N[C@H](C(=O)N[C@@H](Cc1ccc(O)cc1)C(=O)N[C@@H](Cc1ccc(O)cc1)C(=O)NCC(=O)N[C@@H](CC(=O)O)C(=O)N[C@@H](CCCNC(=N)N)C(=O)N[C@@H](C)C(=O)N[C@@H](CCCNC(=N)N)C(=O)N[C@H](C(=O)N[C@@H](CCCNC(=N)N)C(=O)N[C@@H](Cc1ccccc1)C(=O)O)C(C)C)[C@@H](C)O (H-SNSRPPRKNDVNTMADAYKFLQDLDTYYGDRARVRF-OH)	–	–	–	Active
CC(C)CN1C[C@H](CCCCN)NC(=S)c2nn(CC(C)C)cc21	Active	40	6.8	–
CC(C)CN1C[C@H](CCCCN)N=C(SCCC(N)=O)c2nn(CC(C)C)cc21	Active	40	6.1	–
CC(C)CN1C[C@@H](CCCCN)N=C(SCCC(=O)NN)c2nn(CC(C)C)cc21	Active	40	20.9	–
